Data from the supplement of paper PMC10307832.

Assays:
Assay in all cases: relative viability (nuclei count vs DMSO), 5 days (fraction); higher = more cells survive
[1] = compound: O=C(O)c1ccc2c(c1)nc(Nc1cccc(Cl)c1)c1ccncc12 [Silmitasertib] + CCNC(=O)c1noc(-c2cc(C(C)C)c(O)cc2O)c1-c1ccc(CN2CCOCC2)cc1 [Luminespib] (partner 0.01 µM)
How it was run: (§1)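 For relative viability, nuclei counts in treated wells were divided by those in vehicle wells. Lung cancer cell lines had been pin-tool dosed in 1536-well plates the day after seeding and cultured for 5 days, then fixed and stained in one step (final 0.05% Triton X-100, 1% formaldehyde, 1 ug/ml Hoechst) and imaged at 4×. Doses were one drug alone or a fixed anchor-drug dose plus five library-drug doses (not always all listed) in √10 steps, and values are duplicate-plate medians.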

[2] = compound: O=C(O)c1ccc2c(c1)nc(Nc1cccc(Cl)c1)c1ccncc12 [Silmitasertib] + C[C@]1(O)C[C@@H](c2nc(-c3ccc4ccc(-c5ccccc5)nc4c3)c3c(N)nccn32)C1 [Linsitinib] (partner 1 µM)
How it was run: as §1

[3] = compound: O=C(O)c1ccc2c(c1)nc(Nc1cccc(Cl)c1)c1ccncc12 [Silmitasertib] + O=C(CCCCCCC(=O)Nc1ccccc1)NO [Vorinostat] (partner 1 µM)
How it was run: as §1

[4] = compound: O=C(O)c1ccc2c(c1)nc(Nc1cccc(Cl)c1)c1ccncc12 [Silmitasertib] + C[C@@H](Oc1cc(-c2cnn(C3CCNCC3)c2)cnc1N)c1c(Cl)ccc(F)c1Cl [Crizotinib] (partner 1 µM)
How it was run: as §1

[5] = compound: O=C(O)c1ccc2c(c1)nc(Nc1cccc(Cl)c1)c1ccncc12 [Silmitasertib]
How it was run: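 Only plates meeting two conditions passed: control CV below 25% and at least one doubling. Lung cancer cell lines, kept overnight at 37 °C in 1536-well plates, were pinned with five library-drug doses (not always all listed) √10 apart on vehicle-anchored plates and grown 5 days without medium change. A one-step fix, permeabilisation and Hoechst stain preceded 4× imaging and MetaXpress nuclear counting. Viability equals treated-well nuclei divided by vehicle-well nuclei, as the median over plates.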

Cell Line	relative viability ([1]; first compound 0.04 µM)	relative viability ([1]; first compound 0.4 µM)	relative viability ([1]; first compound 1.265 µM)	relative viability ([1]; first compound 4 µM)	relative viability ([2]; first compound 0.04 µM)	relative viability ([2]; first compound 0.4 µM)	relative viability ([2]; first compound 1.265 µM)	relative viability ([2]; first compound 4 µM)	relative viability ([3]; first compound 0.04 µM)	relative viability ([3]; first compound 0.4 µM)	relative viability ([3]; first compound 1.265 µM)	relative viability ([3]; first compound 4 µM)	relative viability ([4]; first compound 0.04 µM)	relative viability ([4]; first compound 0.4 µM)	relative viability ([4]; first compound 1.265 µM)	relative viability ([4]; first compound 4 µM)	relative viability ([5]; 0.04 µM)	relative viability ([5]; 0.4 µM)	relative viability ([5]; 1.265 µM)	relative viability ([5]; 4 µM)
RERF-LC-KJ	1.24	1.19	1.08	0.633	0.858	0.876	0.689	0.672	0.768	0.517	0.463	0.371	0.77	0.817	0.736	0.711	1.03	0.848	0.823	0.581
SK-LU-1	0.21	0.204	0.187	0.179	1.22	0.987	0.688	0.297	0.851	0.673	0.587	0.35	1.2	0.714	0.502	0.315	1.13	0.703	0.802	0.457
SK-MES-1	0.821	0.801	0.397	0.213	1.18	1.13	1.11	1.09	1.21	0.876	0.8	0.297	1.1	1.05	1.06	0.656	1.04	0.989	0.855	0.491
SW 1573	0.243	0.215	0.179	0.164	0.805	0.679	0.855	0.682	1.17	0.661	0.908	0.577	0.952	0.707	0.734	0.625	1.19	0.955	0.876	0.779
UMC-11	1.2	1.1	0.861	0.613	1.04	1.08	1.1	0.678	0.388	0.522	0.439	0.333	0.604	0.683	0.56	0.324	1.11	0.916	0.985	0.684
